Literature values, collected in PMC7309225, “Synthesis, Biodistribution, and Radiation Dosimetry of a Novel mGluR5 Radioligand: ^18F-AZD9272” (ACS Chemical Neuroscience, 2020).
Like-named read-outs stand apart in the source and are kept apart here.

Assays:
mGluR5 = tested on: mGluR5; set-up: method as in PMID 29608920; conditions: 2TC, cited from earlier work
[1] = tested on: monoamine oxidase-B (MAO-B); set-up: method as in PMID 23541825; conditions: human brain stem, thalamus, amygdala, cerebellum, and ventral striatum; cited from earlier work

**Q.** Which results are given for N#Cc1cc(F)cc(-c2nc(-c3ccc(F)cn3)no2)c1 [^11C-AZD9272]?
**A.** VT (mGluR5; occipital cortex): 6.5 mL/cm^3; VT (mGluR5; ventral striatum): 18.0 mL/cm^3; MAO-B component of binding [1]: 90–95%
